Data published in patent publication US10912819B2, “Neuroprotective peptides derived from activity-dependent neuroprotective protein for treatment of neurological diseases” (priority 2016, dated 2021).
Entries after “also recorded” stand apart in the source; their conditions may differ.

Assays:
Akap6 [1] = assay: Hippocampal Akap6 mRNA expression, quantitative real-time PCR; assay type: in vivo; settings: 7.5-month-old mice treated with NAP/CB, normalized to Hprt
Protocol: (§1) In females, NAP regulates genes deregulated with ADNP mutation in the hippocampus. […] Sexual dichotomy determined by t-test analysis was also observed for Akap6 and Chl1 expression between Adnp^+/− males and females (#p<0.05, ##p<0.01, ###p<0.001).
(§2) Quantitative reverse transcription real time polymerase chain reaction (RT-PCR) was performed as before (18, 37).

Chl1 = assay: Hippocampal Chl1 mRNA expression, quantitative real-time PCR; assay type: in vivo; settings: 7.5-month-old mice treated with NAP/CB, FIG. 8F
Protocol: as §1, §2

[2] = test system: Adnp^+/+ and Adnp^+/− male mice; assay: Open field test; assay type: in vivo; settings: 15 min
Protocol: FIG. 5. […] Furthermore, NAP ameliorates motor dysfunction in Adnp^+/− mice. Each male mouse (n=9-12 per group) was placed in the middle of the field and allowed to freely explore the arena for 15 min. The duration in center zone (A), and the total path traveled (B) were measured by the Ethovision XT video tracking system (Noldus Inc. Leesburg, Va.).
(§3) Experiments performed as we described in Malishkevich et al., 2015 (37) and Amram et al., Mol Psychiatry. 2016 October; 21(10):1467-76 (7). 3-6 month-old male mice were used, drug application (0.5 μg/5 μl/mouse) was once daily, for one month and then behavioral assays were initiated together with drug application. In experiments with the vehicle termed DD (NAP-benzalkonium), drug application was at 2 months of age and continued as above. Open field experiments (16, 17) and elevated plus maze evaluations (18) were carried out as before.

[3] = test system: amnestic mild cognitive impairment patients; settings: clinical study; cited from earlier work
Akap6 [4] = assay: Akap6 tongue gene expression, quantitative real-time PCR; assay type: in vivo, mice
Protocol: Tongue total RNA was extracted from 4-month-old mice (treated with NAP/DD as above) and analyzed for Akap6, Hprt, and Gapdh mRNA expression by quantitative real-time PCR (n=6-14 replicates per experimental group). HPRT and Gapdh served as normalizing transcripts.
as §2

[5] = test system: individuals suffering from progressive supranuclear palsy (PSP); settings: 30 mg twice daily, changed formulation; cited from earlier work
Adnp^+/− mice [6] = assay: Grip strength test; assay type: in vivo; settings: male mice, treatment from 2 months of age, 0.5 μg NAP/mouse/day intranasal in DD, 5 weeks; p<0.05
Protocol: The grip strength test measures forelimbs muscle strength using the UgoBasile 47200-Grip-Strength Meter. Each animal was tested five times and the peak force of each mouse was recorded. Data are expressed as mean±SEM.

Adnp^+/− mice [7] = assay: Social memory test; assay type: in vivo
Protocol: FIG. 3. NAP treatment increases social memory. Animal performance is shown. (A, animals were as in FIG. 2A,B; n=9-12 per group). Data are expressed as mean±SEM total time (sec) spent exploring mice designated by relative discrimination index (D2=(b−a)/(a+b); b=time sniffing novel mouse, a=time sniffing familiar mouse). An empty wire cup and a cup containing target mouse (“familiar”) were placed in the center of the right or left chamber. After 3 hours, a novel mouse was put inside the empty cup, while the other cup contained the familiar mouse. The Adnp^+/− mice spent less time in exploring the novel mouse, as compared to Adnp^+/+ mice.
as §3

Adnp^+/− mouse pups = assay: Ultrasonic vocalization (USV) of pups after dam separation; assay type: in vivo, mice
Protocol: Furthermore, Auditory brain response (ABR) of 2.5 months old mice presents prolonged latency of hearing in Adnp+/− vs. Adnp+/+ females. (A) Results are presented as means±SEM. Ultrasonic vocalizations (USVs) were recorded in eight-day-old pups, subjected to daily subcutaneous injections of NAP (25 μg/ml saline) or saline (20 μl and 40 μl on postnatal days 1-4 and 5-7). The recordings were performed following dam separation according to published literature (Shu, W., et al. 2005. Proc Nati Acad Sci USA 102:9643-9648) NAP was injected as described before (Rotstein, M., et al., 2006. J Pharmacol Exp Ther 319:332-339).
Language and speech deficits affect ADNP-mutated children (38, 39) and autistic children in general (51). In rodents, both speech and social communication are tested by analysis of isolation induced ultrasonic vocalizations (USVs) (52). As part of USV test, 25 μg of NAP were diluted in 1 ml saline and injected (subcutaneous) to Adnp^+/− mouse pups for 9 subsequent days (1-9 days of age) in doses of 20, 40 μl on days 1-4, 5-7 respectively (50).

Adnp^+/− mice [8] = assay: Hanging wire test; assay type: in vivo
Description: The hanging wire test measures the strength of the mouse paws by using the latency to fall off from an inverted cage lid (placed 50 cm above the surface) onto a soft bedding (maximum time 120 sec). Data are expressed as mean±SEM.

[9] = tongue, 4-month-old mice, NAP/DD, p<0.05
[10] = 5-month-old mice, 0.5 μg NAP/mouse/day intranasal in CB, 8 weeks, NAP vs vehicle p<0.05
[11] = 5-month-old mice, 0.5 μg NAP/mouse/day intranasal in CB, 3 weeks, p<0.05

SMILES: CC[C@H](C)[C@H](NC(=O)[C@H](CO)NC(=O)[C@@H](NC(=O)[C@@H]1CCCN1C(=O)[C@H](C)NC(=O)[C@@H](N)CC(N)=O)C(C)C)C(=O)N1CCC[C@H]1C(=O)N[C@@H](CCC(N)=O)C(=O)O [NAP]
- hippocampal Akap6 expression, females, NAP-treated vs vehicle-treated Adnp^+/− mice (Akap6 [1]): ameliorated; also recorded: significantly increased expression
- hippocampal Chl1 expression (Chl1): also regulated by NAP
- duration in center zone ([2]; male mice of both genotypes, NAP-treated vs vehicle-treated p<0.05): staying longer time at the center of the field
- total path traveled (slight hyperactivity of Adnp^+/− mice) ([2]; male mice): not affecting the slight hyperactivity
- cognitive scores [3]: increase in cognitive scores
- dysregulated Akap6 expression in the tongue (Akap6 [4]; FIG. 8 C,D): amelioration
- Akap6 normalized to Gapdh: vehicle Adnp^+/− female mice compared to NAP-treated Adnp^+/− mice (Akap6 [4]; tongue, 4-month-old mice, NAP/DD): significantly increased expression
- Akap6 normalized to Gapdh: NAP-treated Adnp^+/− male mice compared to vehicle-treated (Akap6 [4]; [9]): significantly increased
- Akap6 normalized to Hprt: vehicle Adnp^+/− male mice compared to NAP-treated Adnp^+/− mice (Akap6 [4]; [9]): significantly decreased
- efficacy in PSP [5]: did not show efficacy
- forelimbs muscle strength (grip force) (Adnp^+/− mice [6]): significantly improving it
- social memory, females (Adnp^+/− mice [7]; 2-month-old mice, 0.5 μg NAP/mouse/day intranasal in DD, 7 weeks, NAP vs vehicle p<0.05): significant difference
- social memory, females (Adnp^+/− mice [7]; [10]): significant difference
- social memory, males (Adnp^+/− mice [7]; [10]): significant difference
- social memory (relative discrimination index novel vs familiar mouse) (Adnp^+/− mice [7]; male mice 6-9 months, NAP in CB intranasal, FIG. 3A, NAP vs vehicle p<0.001): improved social memory
- USV per minute, male and female groups combined (Adnp^+/− mouse pups; Adnp^+/− pups, NAP daily injections, FIG. 9C): protected against this deficiency; also recorded: most significant increase
- USV per minute by sex (Adnp^+/− mouse pups; Adnp^+/− pups, NAP vs saline treated littermates, increased group size, FIG. 9B): normalizing it in females; also recorded: increased vocalization in both sexes
- number of USVs produced in a minute, Adnp^+/− pups (Adnp^+/− mouse pups; eight-day-old pups, daily subcutaneous NAP (25 μg/ml saline) vs saline, p=0.005): significant increase; also recorded: amelioration
- number of USVs produced in a minute, Adnp^+/+ pups (Adnp^+/− mouse pups; eight-day-old pups, daily subcutaneous NAP vs saline, p=0.73): no significant treatment effect
- latency to fall, males (Adnp^+/− mice [8]; 2-month-old mice, 0.5 μg NAP/mouse/day intranasal in DD, 5 weeks, p<0.01): improved
- latency to fall, females (Adnp^+/− mice [8]; [11]): significant difference
- latency to fall, males (Adnp^+/− mice [8]; [11]): significant difference
